Values of other authors, collected in US20110014255A1, “PHYTOSANITARY FORMULATION GENERATING NANOPARTICLES, METHOD FOR PREPARING NANOPARTICLES AND USE THEREOF” (priority 2006, published 2011).
“And” between values parts separate entries of the source, which are not always exact repeats. Identical values can stand only once. Counter-ions that a name gives are not always drawn. Like-named read-outs stand apart in the source and are kept apart here.

Settings: % by weight

| Compound | miscibility in water | miscibility in water (listed as octyl pyrrolidone) |
| --- | --- | --- |
| CC(Cl)Cl [1,1-dichloroethane] | 5.03% |  |
| CCCC(O)C(CC)CO (centres unmarked) [2-ethyl-1,3-hexanediol] | 0.6% |  |
| CCC(CC)CO [2-ethylbutanol] | 0.63% |  |
| CCCCC(CC)CO (centres unmarked) [2-ethylhexanol] | 0.07% |  |
| CCCCOC(=O)[C@H](C)O [(S)-n-butyl lactate] | 4.5% |  |
| CCCCCC(C)O (centres unmarked) [Example 2-heptanol, 2-heptanol] | 0.35% |  |
| CCCCCCCC(=O)N(C)C [N,N-dimethyloctanamide] | 0.43% |  |
| CCCCCCCCN1CCCC1=O [N-octylpyrrolidone] | 0.1% | not more than 0.1% |
| CCCCCOC(C)=O [N-pentyl acetate] | 1% |  |
| CC(=O)c1ccccc1 [acetophenone] | 0.55% |  |
| C=CC#N [acrylonitrile] | 7.35% |  |
| COc1ccccc1 [anisole] | 1.04% |  |
| N#Cc1ccccc1 [benzonitrile] | 0.2% |  |
| CC(=O)OCc1ccccc1 [benzyl acetate] | 0.001% |  |
| OCc1ccccc1 [benzyl alcohol] | 0.08% |  |
| O=C(OCc1ccccc1)c1ccccc1O [benzyl salicylate] | 0.005% |  |
| CCCCOC(C)=O [butyl acetate] | 2.9% |  |
| CCCC=O [butyraldehyde] | 7.1% |  |
| CCCC#N [butyronitrile] | 3.3% |  |
| O=C1CCCCC1 [cyclohexanone] | 2.4% and 2.3% |  |
| CCCCCCCCCCO [decanol] | 0.02% |  |
| ClCCl [dichloro-methane] | 1.3% |  |

| Compound | miscibility in water | miscibility in water (listed as octyl pyrrolidone) |
| --- | --- | --- |
| CCOC(=O)c1ccccc1C(=O)OCC [diethyl phthalate] | 0.1% |  |
| CCCCOCCOCCO [diethylene glycol n-butyl ether] | 6.5% |  |
| COCOC [dimethoxymethane] | 2.4% |  |
| COC(=O)CCCCC(=O)OC [dimethyl adipate] | 2.5% |  |
| COC(=O)C(=O)OC [dimethyl oxalate] | 5% |  |
| COC(=O)c1ccccc1C(=O)OC [dimethyl phthalate] | 1.84% |  |
| c1ccc(Oc2ccccc2)cc1 [diphenyl ether] | 0.002% |  |
| ClCC1CO1 (centres unmarked) [epichlorohydrin] | 6.58% |  |
| CCOC(C)=O [ethyl acetate] | 8% |  |
| O=Cc1ccco1 [furfuraldehyde] | 8.3% |  |
| CC(=O)OCCC(C)C [isoamyl acetate] | 2% |  |
| CC(=O)OCC(C)C [isobutyl acetate] | 0.67% |  |
| CC(C)COC(=O)C(C)C [isobutyl isobutyrate] | 0.5% |  |
| CC1=CC(=O)CC(C)(C)C1 [isophorone] | 1.2% |  |
| CC(=O)OC(C)C [isopropyl acetate] | 2.9% |  |
| CC(=O)CC(C)C [methyl isobutyl ketone] | 1.7% |  |
| COC(=O)c1ccccc1O [methyl salicylate] | 0.074% and 0.07% |  |
| CCCOC(C)=O [propyl acetate] | 2.3% |  |
| c1ccc2ncccc2c1 [quinoline] | 0.61% |  |
| CCCCOCCOP(=O)(OCCOCCCC)OCCOCCCC [tributoxyethyl phosphate] | 0.11% |  |
| CCCCC(CC)COP(=O)(OCC(CC)CCCC)OCC(CC)CCCC (centres unmarked) [tris(2-ethylhexyl)phosphate] | 0.1% |  |
